For twelve compounds, Emax and EC50 results are on record in patent publication US20260265245A1, “AROMATIC HETEROCYCLIC DERIVATIVE HAVING GLP-1 RECEPTOR AGONIST ACTIVITY” (Shionogi & Co., Ltd., priority 2021, published 2026).

The assay has as its target T1, Human GLP-1 receptor (Homo sapiens, UniProt P43220).
T1 construct: expressed in transfected cells
Put plainly: Measurement of GLP-1 receptor agonist activity (cAMP assay). Type of assay: cell-based. The following applies: hGLP-1R/CHO-K1 cells; for Emax: cAMP with 2 nM human GLP-1 (7-36) = 100%, DMSO only = 0%; for EC50: increase in cAMP concentration as index, 37° C., 1 hour. As for the experimental part: Test Example 1: Measurement of GLP-1 Receptor Agonist Activity
Human GLP-1 receptor stably expressing cells (hGLP-1R/CHO-K1 cells) are cultured in an a-MEM medium (Sigma) containing 10% FBS (Hyclone), 2% GlutaMAX (Gibco), 1% G418 (Nacalai Tesque), and 1% Penicillin-Streptomycin Mixed Solution (Sigma) at 37° C. under 5% CO2 conditions, and recovered by treating a 10 fold diluted 5.0 g/l-trypsin/5.3 mmol/l-EDTA solution (Nacalai Tesque) and cryopreserved.
A DMSO solution containing the compound of the present invention or human GLP-1 (7-36) (Phoenix Pharmaceuticals) is dispensed into a 384-well microplate (Greiner) at 62.5 nL/well, and in addition, 400 μM Forskolin (Nacalai Tesque) is dispensed therein at 7.5 nL/well. Subsequently, the frozen GLP-1 R/CHO-K1 cells are thawed in a thermostatic bath at 37° C., suspended in HBSS buffer containing 0.1% BSA (Sigma), 20 mM HEPES (GIBCO), 0.1 mM IBMX (Sigma), and 0.2 mM RO20-1724 (Calbiochem) at 2×10^4 cells/mL, and the cell suspension is added at 6 μL/well. The solution was incubated at 37° C. for 1 hour and intracellular cAMP concentration is measured using CAMP Gs dynamic kit (Cisbio) according to the protocol attached to the product. Specifically, a cAMP-d2/Anti-cAMP-Cryptate (1/1) mixed solution is added in a total amount of 6 μL/well, the mixture is incubated at room temperature for 1 hour, and time-resolved fluorescence is measured using PHERAstar (BMG Labtech).
Assuming that the CAMP concentration when human GLP-1 (7-36) is dispensed to a final concentration of 2 nM is 100% and the CAMP concentration when only DMSO is dispensed is 0%, the 50% effective concentration (EC50) and the maximum effect (Emax) of the compound of the present invention are calculated using an increase in the CAMP concentration as an index, using TIBCO Spotfire (TIBCO Software). The dilution concentration or the dilution solvent are changed as necessary.
The compounds of the present invention were tested essentially as described above.
(In general: cAMP levels reflect the balance of adenylyl cyclase and phosphodiesterase activity.)

T1 sequence (P43220 24-463): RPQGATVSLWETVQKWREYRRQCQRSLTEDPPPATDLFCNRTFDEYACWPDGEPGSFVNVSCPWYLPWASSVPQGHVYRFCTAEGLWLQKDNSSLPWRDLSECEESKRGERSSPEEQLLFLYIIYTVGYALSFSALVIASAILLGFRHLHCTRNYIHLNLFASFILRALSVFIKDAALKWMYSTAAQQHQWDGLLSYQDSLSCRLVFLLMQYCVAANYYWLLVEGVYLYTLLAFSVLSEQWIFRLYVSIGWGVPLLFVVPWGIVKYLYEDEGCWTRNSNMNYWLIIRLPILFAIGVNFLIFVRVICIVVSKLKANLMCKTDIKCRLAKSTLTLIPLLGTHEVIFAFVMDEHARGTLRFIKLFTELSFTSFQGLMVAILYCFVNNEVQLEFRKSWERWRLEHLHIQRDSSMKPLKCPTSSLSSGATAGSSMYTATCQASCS

In general, Emax refers to the size of the effect at its maximum, as opposed to the concentration needed. Usually EC50 stands for the concentration at which the effect is half-maximal. A lower EC50 goes with higher potency in that assay. Regarding `Cn1c(/C=C/C(=O)O)cnc1CN1CCC(c2cccc(OCc3ccc(Cl)cc3F)n2)CC1` [I - 001], the Emax amounted to 63.7% and the response was half-maximal at 181 nM (EC50).

The compound `Cn1c(CN2CCC(c3cccc(OCc4ccc(Cl)cc4F)n3)CC2)nc(Br)c1/C=C/C(=O)O` [I - 002] yielded an Emax of 85% and an EC50 of 31.5 nM.

The compound `O=C(O)/C=C/c1c(Br)nc(CN2CCC(c3cccc(OCc4ccc(Cl)cc4F)n3)CC2)n1C[C@@H]1CCO1` [I - 003] returned an Emax of 107% and a concentration for a half-maximal effect (EC50) of 0.401 nM.

`Oc1nnc(-c2c(Br)nc(CN3CCC(c4cccc(OCc5ccc(Cl)cc5F)n4)CC3)n2C[C@@H]2CCO2)o1` [I - 004] had an Emax of 97% and a concentration giving a half-maximal response (EC50) of 7 nM.

`Oc1nnc(-c2c(Cl)nc(CN3CCC(c4cccc(OCc5ccc(Cl)cc5F)n4)CC3)n2C[C@@H]2CCO2)o1` [I - 005] registered an Emax of 98.7% and an EC50 of 16.2 nM.

For `O=C(O)/C=C/c1c(Cl)nc(CN2CCC(c3cccc(OCc4ccc(Cl)cc4F)n3)CC2)n1C[C@@H]1CCO1` [I - 006], the maximal effect (Emax) is 118% and the concentration for a half-maximal effect (EC50) was found to be 1.41 nM.

With `C[C@]1(c2ccc(Cl)cc2F)Oc2cccc(C3CCN(Cc4nc(Cl)c(/C=C/C(=O)O)n4C[C@@H]4CCO4)CC3)c2O1` [I - 007], the Emax was 92% and the EC50 amounted to 0.138 nM.

`C[C@H]1c2cc(OCc3ccc(Cl)cc3F)c(C(F)(F)F)cc2CCN1Cc1nc(Br)c(/C=C/C(=O)O)n1C[C@@H]1CCO1` [I - 008] displayed an Emax of 105% and a half-maximal effective concentration (EC50) of 0.368 nM.

In turn, `C[C@H]1c2nc(OCc3ccc(Cl)cc3F)c(C(F)(F)F)cc2CCN1Cc1ncc(/C=C/C(=O)O)n1C[C@@H]1CCO1` [I - 009] had a maximum response (Emax) of 101% and an EC50 of 0.686 nM.

`C[C@H]1c2nc(OCc3ccc(Cl)cc3F)c(Cl)cc2CCN1Cc1nc(Br)c(/C=C/C(=O)O)n1C[C@@H]1CCO1` [I - 010] showed a maximum response (Emax) of 96% and an EC50 of 0.151 nM.

With `C[C@H]1c2nc(OCc3ccc(Cl)cc3F)c(C(F)(F)F)cc2CCN1Cc1nc(Cl)c(/C=C/C(=O)O)n1C[C@@H]1CCO1` [I - 011], the maximum response (Emax) came out at 99.7% and the EC50 came out at 0.0965 nM.

The compound `C[C@H]1c2nc(OCc3ccc(Cl)cc3F)c(C(F)F)cc2CCN1Cc1nc(Cl)c(/C=C/C(=O)O)n1C[C@@H]1CCO1` [I - 012] came in with an Emax of 117% and a concentration giving a half-maximal response (EC50) of 0.283 nM.
